Source: patent publication US20060134738A1, “Gene expression inducing fusion protein and method for controlling gene expression Induction” (priority 2003, published 2006)

Key:
Assay type in all cases: cell-based
[1] = test system: proteins containing CVLS, CVLL or SVLS boxes in HeLa cells; test: Subcellular localization of fusion proteins by fluorescence microscopy (FIGS. 6A and B); details: treatment 8 hours, immunofluorescence with anti-HA antibody
Excerpt: Moreover, the subcellular localization of proteins containing CVLS, CVLL or SVLS boxes was verified.
To do this, these boxes were fused with the YFP protein (yellow fluorescent protein), and all the fusion proteins were cloned with an HA sequence in the N-terminal position. The constructs were transiently transfected into HeLa cells, and the localization of the fusion proteins was followed by fluorescence microscopy after immunofluorescence with an anti-HA antibody (FIGS. 6A and B, in color).

[2] = test system: R17-4G-CAAX constructs (CVLS, CVLL, SVLS) in HeLa cells; test: Translation activation in HeLa clones with integrated reporter, transiently transfected with R17-4G-CAAX constructs (FIG. 5); details: for activation of translation relative to the DMSO controls, R17-4G-SVLS: construct neither farnesylated nor geranylated; for activation of translation relative to the DMSO controls, R17-4G-CVLS: construct with farnesylations box; for activation of translation relative to the DMSO controls, R17-4G-CVLL: construct with geranylations box
Procedure: The pCRL138 or pCRL138-R17 reporter sequences are integrated into the genome of HeLa cells, and various R17-4G-CAAX constructs—where CAAX can be farnesylated, “CVLS”, or geranylgeranylated, “CVLL”, or no longer undergo any post-translational modifications of this type, “SVLS”,—are transiently transfected into these two clones.
After transfection, the cells are treated with FTI 277 (farnesyltransferase inhibitor) or GGTI 298 (geranyltransferase inhibitor).

[3] = test system: farnesylation of R17-4G-CVLS; test: LucF/LucR induction in HeLa clone with integrated R17-4G-CVLS, prenyltransferase inhibitors (FIG. 2A, 2B); details: for induction (quotient of LucF and LucR relative to the DMSO control): reporters pCRL138 and pCRL138-R17, FIG. 2A
Procedure: The nucleic acid encoding the R17-4G-CVLS protein is integrated into the genome of HeLa cells. The reporter plasmids pCRL138 and pCRL138-R17 are transiently transfected into this clone. The products that act on farnesylation of R17-4G-CVLS are then sought.
DMSO is the solvent in which the products (FTI 277 and GGTI 298) that are added to the culture medium are dissolved, and therefore represents an induction control.
The white rectangles represent the RNA which carries the R17 protein recognition sequence. The black rectangles represent the activities obtained under the same conditions with an RNA sequence that is similar but no longer carries the R17 recognition; it is therefore the negative control for the first construct.
The induction is represented by the quotient of the LucF and LucR values measured directly in the presence of an agent (FTI 277 or GGTI 298), relative to the DMSO control.

[4] = test system: HMGCoA-reductase; test: LucF/LucR ratio in HeLa cells stably transfected with R17-4G-CVLS, screening of HMGCoA-reductase inhibitors (FIG. 3); details: for HMGCoA-reductase inhibiting activity (LucF/LucR ratio relative to a DMSO control): HeLa stably R17-4G-CVLS, reporters pCRL138 and pCRL138-R17, FIG. 3; for effect of mevalonate on the inhibitory activity (LucF/LucR ratio): in the presence of mevalonate, FIG. 3
Excerpt: HMGCoA-reductase, which synthesizes melavonate, is involved in isoprenylation, a post-translational modification of proteins such as 4G-CVLS.
In FIG. 3, the cells used during these tests are HeLa cells stably transfected with the plasmid encoding the R17-4G-CVLS fusion protein, and transiently transfected with the bicistronic reporter plasmids pCRL138 and pCRL138-R17.
The results are given in the form of the ratio of LucF/LucR activity in the presence of various pharmacological agents in the culture medium, relative to a DMSO control.
The model used also made it possible to screen potential HMGCoA-reductase inhibiting agents.

[5] = test system: Farnesyl Pyrophosphate Synthase, also called FPP-synthase; test: LucF/LucR ratio in HeLa cells stably transfected with R17-4G-CVLS, FPP-synthase inhibitors (FIG. 4); details: HeLa stably R17-4G-CVLS
Excerpt: This enzyme is required for the biosynthesis of farnesyl pyrophosphates.
In these tests represented in FIG. 4, the same cellular model as in b), stably transfected with R17-4G-CVLS, is used.

[6] = test system: translation of the second cistron (LucF/LucR ratio), SKHep-1 human hepatoma cells; test: LucF/LucR translation induction in transiently transfected SKHep-1 cells (FIG. 1); details: inhibitor 15 μM, 1 to 8 hours
Excerpt: 1. “Reporter” plasmids that make it possible to transcribe, in the cells, a bicistronic RNA encoding the LucR (Renilla luciferase) reporter protein in the first cistron and the LucF (firefly luciferase) reporter protein in the second cistron. The plasmids pCRL30-R17 or pCRL138-R17 also contain, in the intercistron space of the mRNA, a binding site for the capsid protein of the R17 bacteriophage (plasmid).
2. Effector plasmids which will be able to express, in the cells: • a fusion protein consisting of the R17 phage capsid protein fused with the C-terminal region of the eIF4G translation initiation factor, for the plasmid pCI R17-4G, • a fusion protein consisting of the R17 phage capsid protein fused with the C-terminal region of the eIF4G translation initiation factor and a farnesylation protein domain (of protein sequence CVLS), for the plasmid pCI R17-4G-CVLS.
The procedure is carried out in the following way. SKHep-1 human hepatoma cells are transiently transfected with cationic liposomes using 10 pmol of reporter plasmids and 5 pmol of activator plasmids per 1 million cells. […]
After lysis of the cells, the LucR and LucF activities are assayed using the “Dual-Luciferase (TM) reporter system” kit (Promega E1980) on a Berthold LB96B luminescence device. […]

[7] = test system: p27Kip1 protein expression in CHO (Chinese hamster ovary) cells; test: p27 expression by Western blotting in cotransfected CHO cells (FIG. 7); details: 8 hours
Excerpt: The reporter plasmid constructed in the context of this example makes it possible to transcribe, in mammalian cells in culture ex vivo, a bicistronic RNA encoding a truncated H2-Kk protein (mouse MHC class I molecule) as a marker for selection of the transfected cells, and encoding the p27Kip1 protein which is a cell cycle-inhibiting protein. The bicistronic RNA also contains, in the intercistron space, a binding site for the R17 bacteriophage capsid protein. This bicistronic RNA is very diagrammatically represented in FIG. 7.
The effector plasmid used is the one for expressing the R17-4G-CVLS fusion protein.
CHO (Chinese hamster ovary) cells are transiently transfected with cationic liposomes using 10 pmol of reporter plasmids and 5 pmol of activator plasmids per 1 million cells. Twelve hours after transfection, the cells are treated for 8 hours with the farnesyltransferase inhibitor (Cys-Val-3(2-naphthyl)Ala-Met; Sigma C4433) at a final concentration of 1 μM in the culture medium. […]
The expression of the p27 protein (ap27 line) is examined by Western blotting with a monoclonal antibody (Ref. 610241, BD Bioscience Pharmingen). The expression of the R17-4G-CVLS fusion protein (aHA line) is detected by Western blotting using a monoclonal antibody against the HA peptide (Eurogentec) located at the NH2-terminal end of the R17-4G-CVLS protein. […]

Compound | activation of translation relative to the DMSO controls, R17-4G-SVLS [2] | activation of translation relative to the DMSO controls, R17-4G-CVLS [2] | activation of translation relative to the DMSO controls, R17-4G-CVLL [2] | induction (quotient of LucF and LucR relative to the DMSO control) ([3]; HeLa, integrated R17-4G-CVLS) | HMGCoA-reductase inhibiting activity (LucF/LucR ratio relative to a DMSO control) [4] | effect of mevalonate on the inhibitory activity (LucF/LucR ratio) [4] | other results
COC(=O)[C@H](CCSC)NC(=O)c1ccc(NC[C@@H](N)CS)cc1-c1ccccc1 [FTI 277] | neither of the two molecules is capable of activation | capable of activating translation | only GGTI 298 is capable of activating translation | has an inducer effect |  |  | relocalization of fusion proteins to the cytoplasm [1]: relocalizes only the YFP-CVLS and R17-4G-CVLS proteins to the cytoplasm; treatment time at which the maximum activation effect is obtained ([3]; HeLa, integrated R17-4G-CVLS, kinetics FIG. 2A): 8 h; reversibility of the activation effect (LucF/LucR activation ratio after removal of the product) ([3]; cells treated for 8 h with 1 μM, then product removed, FIG. 2B): reversible
COC(=O)[C@H](CC(C)C)NC(=O)c1ccc(NC[C@@H](N)CS)cc1-c1cccc2ccccc12 [GGTI 298] | neither of the two molecules is capable of activation | only FTI 277 is capable of activating translation | capable of activating translation | has no activation effect |  |  | 
c1ccc(Cc2ccc(OCCN3CCCC3)cc2)cc1 [PBPE] |  |  |  |  | found to be an inhibitor of HMGCOA-reductase | compensated for by the presence of mevalonate | 
CC/C(=C(\c1ccccc1)c1ccc(OCCN(C)C)cc1)c1ccccc1 [tamoxifen] |  |  |  |  | inhibits this enzyme even at low concentrations | reversed or compensated for by mevalonate | farnesylation / FPP-synthase inhibition (LucF/LucR ratio) [5]: is also an FPP-synthase inhibitor
Cys-Val-3(2-naphthyl)Ala-Met [farnesyltransferase inhibitor] |  |  |  |  |  |  | level of translation induced by the expression of the R17-4G fusion protein under inhibitor treatment (LucF/LucR ratio) ([6]; SKHep-1, effector pCI R17-4G): not modulated; increase in translation induced by the R17-4G-CAAX inducer fusion protein under inhibitor treatment (LucF/LucR ratio) ([6]; SKHep-1, effector pCI R17-4G-CVLS): dependent on the time of treatment; amount of p27 (Western blotting) ([7]; CHO cotransfected with pR17-4G-CVLS and pK-R17-p27, inhibitor 1 μM): An increase in the amount of p27; amount of fusion protein produced (Western blotting, anti-HA) ([7]; CHO cotransfected, with or without inhibitor 1 μM): identical with or without treatment with the inhibitor
